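Five compound concentrations were applied to cells in 96-well plates for 48 hours; endpoints were derived by simple linear interpolation of the resulting dose-response curve. GI50 is the concentration that inhibits growth by half.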 The source made the active and inactive calls. Cut-off read from the data, not from the text of the source: active = GI50 up to about 1.1 µM and inactive = higher.
Experiments:
Assay in all cases: NCI anticancer screen, dose series, 48 h
[1] = system: SK-MEL-5
[2] = system: SW-620
[3] = system: PC-3
[4] = system: KM12
[5] = system: NCI-H23
[6] = system: CCRF-CEM
[7] = system: MDA-MB-231
[8] = system: K562
[9] = system: TK-10
[10] = system: HOP-92
[11] = system: NCI/ADR-RES
[12] = system: SK-OV-3
[13] = system: MDA-MB-435
[14] = system: HL-60
[15] = system: MOLT-4
[16] = system: A498
[17] = system: UACC-62
[18] = system: UACC-257
[19] = system: SK-MEL-28
[20] = system: SK-MEL-2
[21] = system: OVCAR-4
[22] = system: SNB-19
[23] = system: HCT-116
[24] = system: SNB-75
[25] = system: CAKI-1
[26] = system: UO-31
[27] = system: RPMI-8226
[28] = system: OVCAR-5
[29] = system: SF-539
[30] = system: 786-0
[31] = system: COLO 205
[32] = system: SF-295
[33] = system: Malme-3M
[34] = system: LOX IMVI
[35] = system: NCI-H226
[36] = system: M14
[37] = system: SN12C
[38] = system: OVCAR-8
[39] = system: NCI-H522
[40] = system: SF-268
[41] = system: BT-549
[42] = system: ACHN
[43] = system: EKVX
[44] = system: NCI-H460
[45] = system: HT-29
[46] = system: T47D
[47] = system: HCC 2998
[48] = system: A549
[49] = system: HCT-15
[50] = system: IGROV-1
[51] = system: MDA-N
[52] = system: DU-145
[53] = system: Hs-578T
[54] = system: OVCAR-3
[55] = system: U-251
[56] = system: SR
[57] = system: HOP-62

CO[C@H]1C=C[C@]23c4cc5c(cc4CN(CC2O)[C@@H]3C1)OCO5 (some centres not stated)
GI50 [1]: 2.29 µM (inactive)
GI50 [2]: 3.03 µM (inactive)
GI50 [3]: 2.39 µM (inactive)
GI50 [4]: 3.09 µM (inactive)
GI50 [5]: 4.49 µM (inactive)
GI50 [6]: 0.314 µM (active)
GI50 [7]: 2.67 µM (inactive)
GI50 [8]: 2.04 µM (inactive)
GI50 [9]: 3.18 µM (inactive)
GI50 [10]: 0.336 µM (active)
GI50 [11]: 4.98 µM (inactive)
GI50 [12]: 0.388 µM (active)
GI50 [13]: 2.81 µM (inactive)
GI50 [14]: 179 nM (active)
GI50 [15]: 0.873 µM (active)
GI50 [16]: 2.06 µM (inactive)
GI50 [17]: 2.18 µM (inactive)
GI50 [18]: 3.15 µM (inactive)
GI50 [19]: 2.17 µM (inactive)
GI50 [20]: 1.08 µM (active)
GI50 [21]: 1.78 µM (inactive)
GI50 [22]: 2.17 µM (inactive)
GI50 [23]: 1.97 µM (inactive)
GI50 [24]: 2.36 µM (inactive)
GI50 [25]: 3.59 µM (inactive)
GI50 [26]: 2.04 µM (inactive)
GI50 [27]: 2.82 µM (inactive)
GI50 [28]: 5.47 µM (inactive)
GI50 [29]: 2.59 µM (inactive)
GI50 [30]: 1.91 µM (inactive)
GI50 [31]: 2.58 µM (inactive)
GI50 [32]: 0.375 µM (active)
GI50 [33]: 2.15 µM (inactive)
GI50 [34]: 2.18 µM (inactive)
GI50 [35]: 6.9 µM (inactive)
GI50 [36]: 3.3 µM (inactive)
GI50 [37]: 3.3 µM (inactive)
GI50 [38]: 3.08 µM (inactive)
GI50 [39]: 1.72 µM (inactive)
GI50 [40]: 2.17 µM (inactive)
GI50 [41]: 2.36 µM (inactive)
GI50 [42]: 0.678 µM (active)
GI50 [43]: 3.57 µM (inactive)
GI50 [44]: 1.53 µM (inactive)
GI50 [45]: 2.06 µM (inactive)
GI50 [46]: 1.56 µM (inactive)
GI50 [47]: 2.58 µM (inactive)
GI50 [48]: 3.2 µM (inactive)
GI50 [49]: 1.91 µM
GI50 [50]: 1.37 µM (inactive)
GI50 [51]: 3.93 µM (inactive)
GI50 [52]: 0.668 µM (active)
GI50 [53]: 2.97 µM (inactive)
GI50 [54]: 1.9 µM (inactive)
GI50 [55]: 2.51 µM (inactive)

O=C(N/N=C(\c1ccccc1)c1ccccn1)NC1CCCCC1
GI50 [1]: 40.1 µM (inactive)
GI50 [2]: 76 µM (inactive)
GI50 [3]: 56.2 µM (inactive)
GI50 [4]: 59.3 µM (inactive)
GI50 [5]: 47.9 µM (inactive)
GI50 [6]: 40.8 µM (inactive)
GI50 [7]: 27.7 µM (inactive)
GI50 [8]: 5.46 µM (inactive)
GI50 [9]: 26.9 µM (inactive)
GI50 [10]: 61.8 µM (inactive)
GI50 [12]: 45.5 µM (inactive)
GI50 [13]: > 100 µM (inactive)
GI50 [15]: 41.1 µM (inactive)
GI50 [17]: 38.2 µM (inactive)
GI50 [18]: > 100 µM (inactive)
GI50 [19]: > 100 µM (inactive)
GI50 [20]: 82.4 µM (inactive)
GI50 [21]: 22.7 µM (inactive)
GI50 [22]: > 100 µM (inactive)
GI50 [23]: 55.6 µM (inactive)
GI50 [56]: 72.6 µM (inactive)
GI50 [24]: > 100 µM (inactive)
GI50 [25]: 57 µM (inactive)
GI50 [26]: 43.5 µM (inactive)
GI50 [27]: 48.1 µM (inactive)
GI50 [28]: > 100 µM (inactive)
GI50 [30]: 63.5 µM (inactive)
GI50 [31]: 65 µM (inactive)
GI50 [32]: 26.6 µM (inactive)
GI50 [33]: 38.6 µM (inactive)
GI50 [34]: 19.4 µM (inactive)
GI50 [35]: 41.1 µM (inactive)
GI50 [36]: 30 µM (inactive)
GI50 [37]: 56.5 µM (inactive)
GI50 [39]: 47.4 µM (inactive)
GI50 [40]: 37.2 µM (inactive)
GI50 [41]: 42.4 µM (inactive)
GI50 [42]: 44.6 µM (inactive)
GI50 [43]: 41.8 µM (inactive)
GI50 [44]: 48 µM (inactive)
GI50 [45]: 59.2 µM (inactive)
GI50 [46]: 28.6 µM (inactive)
GI50 [47]: 56.4 µM (inactive)
GI50 [48]: 46.8 µM (inactive)
GI50 [49]: 22.9 µM
GI50 [50]: 30.6 µM (inactive)
GI50 [51]: > 100 µM (inactive)
GI50 [57]: 23.4 µM (inactive)
GI50 [52]: 64.6 µM (inactive)
GI50 [53]: > 100 µM (inactive)
GI50 [54]: 39.6 µM (inactive)
GI50 [55]: 51.1 µM (inactive)

Source: ChEMBL document CHEMBL1201862, “PubChem BioAssay data set” (2004)
